Laboratory results published in patent publication US11382867B2, “Apomorphine-palmitic acid cocrystal solid particle crystalline form” (LEUKOS BIOTECH, S. L., priority 2018, dated 2022).
Structures can show the parent of a compound that is named as a salt.

Key:
[1] = Solubility in water; assay type: physicochemical; conditions: water at RT
Method: Water was progressively added at RT to APO HCl (I) until complete dissolution was reached. Subsequently, the same volume of water was added at RT to the other salts in order to compare their solubility. The mixtures were stirred for 10-15 minutes to allow equilibration. As the salts remained insoluble, the suspensions were diluted with twice the original volume and allowed to equilibrate for another 10-15 minutes at RT.

[2] = In vivo comparative pharmacokinetic and tolerance study, subcutaneous administration; conditions: rats
Method: Apomorphine Hydrochloride (Apo-HCl) was administered subcutaneously to Sprague Dawley rats three times a day for six days (total of eighteen 0.1-mL administrations). Both test items were compared for tolerance and systemic exposure: blood samples were collected from the lateral vein of the tail from all animals on treatment days 1 and 5 at all groups from main animals, samples were analyzed for apomorphine level determination.

[3] = assay type: physicochemical; conditions: 40±2° C./75±5% RH, 1 week

| Structure (SMILES) | solubility in water [1] | volume of water for dissolution ([1]; 10-15 minutes equilibration) | Apomorphine levels in blood (PK profile) [2] | stability [3] | AUC ([2]; compared with Apo-HCl) | Cmax ([2]; compared with Apo-HCl) |
| --- | --- | --- | --- | --- | --- | --- |
| CN1CCc2cccc3c2[C@H]1Cc1ccc(O)c(O)c1-3 [APO HCl (I), Apomorphine hydrochloride] | soluble in water | 54 V | rapid decrease of Apomorphine levels |  |  |  |
| CCCCCCCCCCCCCCCC(=O)O.CCCCCCCCCCCCCCCC(=O)O.CN1CCc2cccc3c2[C@H]1Cc1ccc(O)c(O)c1-3 [Form O, Apo-Palmitic Acid (1:2)] |  |  | Sustained Apomorphine levels | remained stable | higher than Apo-HCl | lower than Apo-HCl |
